In ChEMBL document CHEMBL4431294 (Medchemcomm, 2016):
Values after ≈ are worked out from the molar mass of the structure shown.

Key:
[1] = test system: Escherichia coli; assay: Antibacterial activity against Escherichia coli; assay type: functional
[2] = test system: Bordetella bronchiseptica; assay: Antibacterial activity against Bordetella bronchiseptica; assay type: functional
[3] = test system: Salmonella enterica subsp. enterica serovar Paratyphi B; assay: Antibacterial activity against Salmonella schottmuelleri; assay type: functional
[4] = test system: Klebsiella pneumoniae; assay: Antibacterial activity against Klebsiella pneumoniae; assay type: functional
[5] = test system: Mycobacterium tuberculosis; assay: Antibacterial activity against Mycobacterium tuberculosis 607; assay type: functional
[6] = Antibacterial activity against Eberthella typhosa; assay type: functional
[7] = test system: Bacillus subtilis; assay: Antibacterial activity against Bacillus subtilis; assay type: functional
[8] = test system: Proteus vulgaris; assay: Antibacterial activity against Proteus vulgaris; assay type: functional
[9] = test system: Staphylococcus aureus; assay: Antibacterial activity against Staphylococcus aureus; assay type: functional
[10] = test system: Pseudomonas aeruginosa; assay: Antibacterial activity against Pseudomonas aeruginosa after 12 hrs; assay type: functional, organism-based
[11] = test system: Escherichia coli; assay: Antibacterial activity against Escherichia coli ATCC 25922; assay type: functional
[12] = test system: Staphylococcus aureus; assay: Antibacterial activity against Staphylococcus aureus ATCC 29213; assay type: functional
[13] = test system: Staphylococcus aureus; assay: Antibacterial activity against Staphylococcus aureus harboring ANT(4'); assay type: functional
[14] = test system: Pseudomonas aeruginosa; assay: Antibacterial activity against Pseudomonas aeruginosa ATCC 27853 harboring APH(3'); assay type: functional
[15] = test system: Klebsiella pneumoniae; assay: Antibacterial activity against Klebsiella pneumoniae ATCC 10031; assay type: functional
[16] = Binding affinity to pre-microRNA-27a (unknwon origin) at 500 nM by spectrofluorometric method
[17] = biological target: Rev responsive element (RRE) RNA; assay: Displacement of fluorescein-labeled RevF1 from HIV1 66-nucleotide RRE RNA by fluorescence anisotropy method; assay type: nucleic-acid assay, Human immunodeficiency virus 1
[18] = Binding affinity to 22-mer TAT triplex DNA (unknown origin) at 8 uM by isothermal titration calorimetry

## NCC1O[C@H](O[C@H]2[C@@H](O)[C@H](O[C@@H]3[C@@H](O)[C@H](N)C[C@H](N)[C@H]3O[C@H]3O[C@H](CN)[C@@H](O)[C@H](O)[C@H]3N)O[C@@H]2CO)[C@H](N)[C@@H](O)[C@@H]1O (some centres not stated)
[1]
  MIC: 0.1 µg/mL (≈ 0.163 µM)
[2]
  MIC: 0.5 µg/mL (≈ 0.813 µM)
[3]
  MIC: 0.1 µg/mL (≈ 0.163 µM)
[4]
  MIC: 0.05 µg/mL (≈ 0.0813 µM)
[5]
  MIC: 0.33 µg/mL (≈ 0.537 µM)
[6]
  MIC: 0.033 µg/mL (≈ 0.0537 µM)
[7]
  MIC: 0.01 µg/mL (≈ 0.0163 µM)
[8]
  MIC: 1 µg/mL (≈ 1.63 µM)
[9]
  MIC: 0.017 µg/mL (≈ 0.0277 µM)

## NC[C@H]1O[C@H](O[C@H]2[C@H](O)[C@@H](O)[C@H](N)C[C@@H]2N)[C@H](N)[C@@H](O)[C@@H]1O [NEAMINE]
[1]
  MIC: 1 µg/mL (≈ 3.1 µM)
[2]
  MIC: 3.3 µg/mL (≈ 10.2 µM)
[3]
  MIC: 1 µg/mL (≈ 3.1 µM)
[4]
  MIC: 0.5 µg/mL (≈ 1.55 µM)
[5]
  MIC: 5 µg/mL (≈ 15.5 µM)
[6]
  MIC: 0.17 µg/mL (≈ 0.527 µM)
[7]
  MIC: 1 µg/mL (≈ 3.1 µM)
[8]
  MIC: < 0.33 µg/mL
[9]
  MIC: 0.13 µg/mL (≈ 0.403 µM)

## NC[C@H]1O[C@H](O[C@H]2[C@H](NCCCCCCCCNC(=O)c3cc4c(cn3)[nH]c3ccccc34)[C@@H](O)[C@H](N)C[C@@H]2N)[C@H](N)[C@@H](O)C1O (single isomer, unassigned)
[10]
  IC50: 85.4 µg/mL (≈ 133 µM)

## NCC1=CC[C@@H](N)[C@@H](O[C@H]2[C@H](O[C@@H]3O[C@H](CO)[C@@H](O[C@H]4O[C@@H](CN)[C@@H](O)[C@H](O)[C@H]4N)[C@H]3O)[C@@H](O)[C@H](N)C[C@@H]2N)O1
[11]
  MIC: 0.5 to 2 µg/mL (≈ 0.861 to 3.44 µM)
[12]
  MIC: 0.5 to 2 µg/mL (≈ 0.861 to 3.44 µM)
[13]
  MIC: 0.5 to 2 µg/mL (≈ 0.861 to 3.44 µM)
[14]
  MIC: 0.5 to 2 µg/mL (≈ 0.861 to 3.44 µM)
[15]
  MIC: 0.5 to 2 µg/mL (≈ 0.861 to 3.44 µM)

## CN1CCN(c2ccc3nc(-c4ccc5[nH]c(-c6ccc(OCc7cn(CCCCC(=O)C(CCn8cc(OCc9cn(C[C@H]%10O[C@@H](O[C@@H]%11[C@@H](O)[C@H](N)C[C@H](N)[C@H]%11O[C@H]%11O[C@H](CN)[C@@H](O)[C@H](O)[C@H]%11N)[C@H](O)[C@@H]%10O[C@H]%10O[C@@H](CN)[C@@H](O)[C@H](O)[C@H]%10N)nn9)nn8)CCn8cc(OCc9cn(C[C@H]%10O[C@@H](O[C@@H]%11[C@@H](O)[C@H](N)C[C@H](N)[C@H]%11O[C@H]%11O[C@H](CN)[C@@H](O)[C@H](O)[C@H]%11N)[C@H](O)[C@@H]%10O[C@H]%10O[C@@H](CN)[C@@H](O)[C@H](O)[C@H]%10N)nn9)nn8)nn7)cc6)cc5c4)[nH]c3c2)CC1
[16]
  Ka: 1.2 to 7.4 ×10⁸ /M

## NCC1O[C@H](O[C@H]2[C@@H](O)[C@H](O[C@@H]3[C@@H](O)[C@H](N)C[C@H](N)[C@H]3O[C@H]3O[C@H](CN)[C@@H](O)[C@H](O)[C@H]3N)O[C@@H]2CNc2c3ccccc3nc3ccccc23)[C@H](N)[C@@H](O)[C@@H]1O (some centres not stated)
[17]
  Kd: ≤ 10 nM

## CC(=O)c1ccc2c(ccc3nc4c(NCCCNC(=O)NCCSC[C@H]5O[C@@H](O[C@@H]6[C@@H](O)[C@H](N)C[C@H](N)[C@H]6O[C@H]6O[C@H](CN)[C@@H](O)[C@H](O)[C@H]6N)[C@H](O)[C@@H]5O[C@H]5OC(CN)[C@@H](O)[C@H](O)[C@H]5N)nc5ccccc5c4nc32)c1 (some centres not stated)
[18]
  Kd: 27 nM
